{
  "source": "patent EP0567613B1",
  "about": "“COMPOSITIONS FOR THERAPY AND PREVENTION OF CANCER” (The Government of the United States of America, as …, priority 1991, dated 1993)",
  "key": {"[1]": {"test_system": "4C8a10 cells (revertants of Haras-transformed NIH3T3 fibroblasts)", "test": "Tumor formation of cells pretreated in culture and injected s.c. into athymic nude mice", "format": "in vivo", "details": "cells pretreated with NaPA 1.5 mg/ml; after 3 weeks", "excerpt": "One-two weeks later the cells were transplanted subcutaneously into athymic mice.\nThe experimental model involved nonmalignant 4C8a10 cells (revertants of Haras-transformed NIH3T3 fibroblasts). […]\nFrederick Cancer Research Facility)."}, "HL-60": {"test_system": "HL-60", "test": "Granulocyte differentiation (NBT reduction, morphology) and viability by trypan blue exclusion", "description": "The number of NBT positive cells was determined after 4 [solid bars] or 7 days [hatched bar] of treatment. […] Glutamine Starvation (Gln, < 0.06 mM) was as described (18).\nThe ability of cells to reduce nitroblue tetrazolium (NBT) is indicative of oxidase activity which is characteristic of the more mature forms of human bone marrow granulocytes. NBT reduction thus serves as an indicator of granulocyte differentiation. […] Glutamine starvation (Gln, < 0.06 mM) was as described. […] DON, ACV and HPA are glutamine antagonists."}, "myc": {"test_system": "myc", "test": "Northern blot analysis of myc mRNA in HL-60", "format": "cell-based, human", "details": "HL-60, NaPA 0.8 mg/ml", "description": "(§1) Cytoplasmic RNA (20 µg/lane) was subjected to Northern blot analysis using ^32P-labeled specific DNA probes. Ethidium bromide-stained […] indicates the relative amounts of total RNA in each lane. Figure A. Induction of a P2 expression in 10T1/2 cells. […] Figure B. Kinetics of myc inhibition and HLA-A induction in HL-60. […] Figure C. Dose-dependent and specificity of effect.\n(§2) In HL-60, cell transformation has been linked to myc amplification and overexpression, and differentiation would typically require down regulation of myc expression. [Collins, S.J. The HL-60 promyelocytic leukemia cell line: Proliferation, differentiation, and cellular oncogene expression. Blood. 70:1233-1244 (1987)]. […] The 32P-labeled probes used were myc 3rd exon (Oncor) and HLA-A3 Hind III/EcoRI fragment. […] This occurred within 4 hours of treatment, preceding the phenotypic changes detectable by 48 hrs, approximately two cell cycles, after treatment. Similar kinetics of myc inhibition have been reported for other differentiation agents such as dimethyl sulfoxide, sodium butyrate, bromodeoxyuridine, retinoids, and 1,25-dihydroxyvitamin D3. […] It is believed that this may enhance the immunogenicity of tumors in vivo."}, "HLA-A": {"test_system": "HLA-A", "test": "Northern blot analysis of HLA-A mRNA in HL-60", "format": "cell-based, human", "details": "HL-60, NaPA 0.8 and 1.6 mg/ml", "description": "as §1, §2"}, "10T1/2 cells": {"test_system": "10T1/2 cells", "test": "Neoplastic foci formation in culture", "details": "800-1600 µg/ml for seven weeks", "excerpt": "[…] The cells were then subcultured in the absence of the nucleoside analog for an additional seven weeks. […] For the tumorigenicity assay, 4-5 week-old female athymic nude mice were inoculated s.c. with 1 x 10^6 cells and observed for tumor growth at the site of injection."}, "PC3 cells": {"test_system": "PC3 cells", "test": "Growth on matrigel / in vitro invasion", "format": "cell-based, human", "details": "800 µg/ml for 4 days, replated on matrigel, 8 days after plating", "description": "Pictures of controls, taken after 1 and 8 days (A and B, respectively), show the characteristic growth pattern of untreated cells, i.e., formation of net-like structures composed of actively replicating cells, which eventually degraded the matrigel and formed monolayers on the plastic surface beneath.\nResults scored 6-24 hours later.\nIt is known that PC3 cells are invasive in vitro and metastatic in recipient athymic mice. [Albini, A. et al. A rapid in vitro assay for quantitating the invasive potential of tumor cells. Cancer Res. 47:3239-3245 (1987)]. The invasiveness of PC3 cells which is indicative of their malignant phenotype can be assessed by their ability to degrade and cross tissue barriers such as matrigel, a reconstituted basement membrane. […] In Fig. 7, pictures of controls taken after 1 and 8 days, A and B, respectively, shown the characteristic growth pattern of untreated cells, i.e., formation of net-like structures composed of actively replicating cells which eventually degraded the matrigel and formed monolayers on the plastic surface beneath. […] The formation of small noninvasive colonies on top of the matrigel is indicative of loss of malignant properties following treatment. Results of the in vitro invasion assays correlate highly with the biological behavior of cells in vivo."}, "HLA-A mRNA": {"test_system": "HLA-A mRNA", "test": "Northern blot analysis in PC3 cells", "format": "cell-based, human", "details": "NaPA treated PC3 cells"}, "Melanoma SK MEL 28": {"test_system": "Melanoma SK MEL 28", "test": "Tumor cell growth / proliferation", "format": "cell-based", "details": "Homo sapiens"}, "Astrocytoma U87": {"test_system": "Astrocytoma U87", "test": "Tumor cell growth / proliferation", "format": "cell-based"}, "Fibrosarcoma V7T": {"test_system": "Fibrosarcoma V7T", "test": "Tumor cell growth / proliferation", "format": "cell-based", "excerpt": "(§3) • # 7-10 For effective responses, the tumors may require much higher drug concentrations if used alone.\n(§4) A differential effect was seen also in ras-transformed fibrosarcoma V7T, when compared to the parental non-tumorigenic N1H3T3 cells."}, "Osteosarcoma HOS": {"test_system": "Osteosarcoma HOS", "test": "Tumor cell growth / proliferation", "format": "cell-based", "details": "read-out: % Inhibition by NaPA 0.8 mg/ml", "excerpt": "as §3, §4"}, "lung adenocarcinoma H596": {"test_system": "lung adenocarcinoma H596", "test": "Tumor cell growth / proliferation", "format": "cell-based", "details": "Homo sapiens, NCI-H596; read-out: concentration causing about 50% inhibition of growth"}, "lung adenocarcinoma H661": {"test_system": "lung adenocarcinoma H661", "test": "Tumor cell growth / proliferation", "format": "cell-based", "details": "Homo sapiens, NCI-H661; read-out: concentration causing about 50% inhibition of growth"}, "[2]": {"test_system": "intracellular glutathione", "test": "Induction of intracellular glutathione", "format": "cell-based", "details": "normal or tumor cells, depending on growth conditions", "excerpt": "It is known that intracellular glutathione plays a major role in detoxification and repair of cellular injury by chemical and physical carcinogens. […] Nontoxic agents that can induce glutathione are highly desirable since these are likely to protect cells from damage by a variety of chemical carcinogens and ionizing radiation."}, "[3]": {"details": "cited from earlier work"}, "[4]": {"test_system": "Erythroleukemia K562 cells", "test": "Induction of hemoglobin synthesis (benzidine staining, protein quantitation)", "details": "for Benzidine Positive Cells: seven days"}, "[5]": {"details": "after seven days of NaPA treatment, or four days when combined with RA"}, "[6]": {"details": "read-out: % Inhibition by NaPA 0.8 mg/ml, 0.8 mg/ml"}, "[7]": {"details": "read-out: concentration causing about 50% inhibition of growth"}},
  "note": "Like-named read-outs stand apart in the source and are kept apart here.",
  "data": [
    {"smiles": "O=C([O-])Cc1ccccc1.[Na+]", "note": "[NaPA, sodium phenylacetate]", "values": [
      {"measurement": "Tumor Formation Incidence", "setting": "[1]", "value": "0/8"},
      {"measurement": "granulocyte differentiation (NBT positive cells)", "setting": "HL-60; NaPA 0.8 and 1.6 mg/ml, 4 or 7 days", "value": "capable of inducing granulocyte differentiation in HL-60"},
      {"measurement": "banded and segmented neutrophils capable of NBT", "setting": "HL-60; [5]", "value": "30-40%"},
      {"measurement": "early stage myelocytes and metamyelocytes", "setting": "HL-60; [5]", "value": "30-50%"},
      {"measurement": "time to decline in the amounts of myc mRNA", "setting": "myc", "value": "≤ 4", "unit": "h"},
      {"measurement": "HLA-A mRNA", "setting": "HLA-A", "value": "time- and dose-dependent accumulation of HLA-A mRNA"},
      {"measurement": "neoplastic foci in vitro and tumors in recipient mice", "setting": "10T1/2 cells", "value": "forming neither neoplastic foci in vitro nor tumors in recipient mice"},
      {"measurement": "degradation of the matrigel barrier", "setting": "PC3 cells", "value": "failed to degrade the matrigel barrier"},
      {"measurement": "level of HLA-A mRNA", "setting": "HLA-A mRNA", "value": "an increase in the level of HLA-A mRNA"},
      {"measurement": "inhibition at 800 µg/mL", "setting": "Melanoma SK MEL 28; [6]", "value": "> 50", "unit": "%"},
      {"measurement": "IC50", "setting": "Melanoma SK MEL 28; [7]", "value": "400 to 800", "unit": "µg/mL"},
      {"measurement": "IC50", "setting": "Astrocytoma U87; Homo sapiens, U-87 MG, read-out: concentration causing about 50% inhibition of growth", "value": "400 to 800", "unit": "µg/mL"},
      {"measurement": "inhibition at 800 µg/mL", "setting": "Astrocytoma U87; [6]", "value": "≥ 50", "unit": "%"},
      {"measurement": "inhibition at 800 µg/mL", "setting": "Fibrosarcoma V7T; [6]", "value": "≤ 30", "unit": "%"},
      {"measurement": "IC50", "setting": "Fibrosarcoma V7T; [7]", "value": "1000 to 1500", "unit": "µg/mL"},
      {"measurement": "inhibition at 800 µg/mL", "setting": "Osteosarcoma HOS", "value": "< 20", "unit": "%"},
      {"measurement": "IC50", "setting": "lung adenocarcinoma H596", "value": "400 to 800", "unit": "µg/mL"},
      {"measurement": "IC50", "setting": "lung adenocarcinoma H661", "value": "400 to 800", "unit": "µg/mL"},
      {"measurement": "induction of the activity of intracellular glutathione", "setting": "[2]", "value": "2-10 fold"},
      {"measurement": "plasma levels", "setting": "[3]; children with urea cycle disorders, infusion 300-500 mg/kg/day", "value": "approximately 800 µg/ml"},
      {"measurement": "plasma levels", "setting": "[3]; humans, intravenous infusion 250-500 mg/kg/day", "value": "600 to 800", "unit": "µg/mL"},
      {"measurement": "hemoglobin accumulation, increase over control cells", "setting": "[4]; 0.8 and 1.6 mg/ml", "value": "4-9 fold"},
      {"measurement": "Benzidine Positive Cells", "setting": "[4]; NaPA 0.8 mg/ml", "value": 6.0, "unit": "%"},
      {"measurement": "Benzidine Positive Cells", "setting": "[4]; NaPA 1.6 mg/ml", "value": 17.1, "unit": "%"}
    ]}
  ]
}
